TGI data for eleven compounds are collected here from PubChem BioAssay (NCI).

Among the test systems are OVCAR-3 ovarian; OVCAR-4 ovarian; MDA-MB-435; UACC-257 melanoma; HOP-92 NSCLC; EKVX NSCLC; SK-MEL-2 melanoma; HOP-62 NSCLC; COLO 205 colon; NCI/ADR-RES ovarian; LOX IMVI melanoma; MALME-3M melanoma; NCI-H460 lung; CAKI-1 renal; HL-60(TB) leukemia.
Test in all cases: growth of human tumour cells (NCI), 48 h

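Step 1: Grow cells in 96-well plates. Step 2: Expose to compound for 48 hours at 5 concentrations. Step 3: Interpolate endpoints linearly; if unreached, use highest concentration. TGI: concentration producing complete growth inhibition.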

In the case of `CCc1n[nH]c(=O)n1/N=C/c1ccccc1O`, the TGI in the test with OVCAR-3 ovarian, with OVCAR-4 ovarian, in the test on MDA-MB-435, with UACC-257 melanoma, in the test on HOP-92 NSCLC and with EKVX NSCLC was more than 100 µM in each case. Also, the TGI with SK-MEL-2 melanoma, in the test with HOP-62 NSCLC, in the test with COLO 205 colon, with NCI/ADR-RES ovarian and with LOX IMVI melanoma was more than 100 µM throughout.
As to `N#CC(C(=O)c1cccnc1Cl)c1nc2cc(C(F)(F)F)ccc2s1` (configuration not stated), the TGI in the test with MALME-3M melanoma is more than 100 µM; in the test on OVCAR-3 ovarian, more than 100 µM; with OVCAR-4 ovarian, more than 100 µM; with MDA-MB-435, more than 100 µM; with UACC-257 melanoma, more than 100 µM; in the test with HOP-92 NSCLC it was 54.4 µM. The TGI in the test on EKVX NSCLC, in the test on NCI-H460 lung, with CAKI-1 renal, in the test on HOP-62 NSCLC, in the test on COLO 205 colon and in the test with NCI/ADR-RES ovarian was more than 100 µM throughout. In the test on LOX IMVI melanoma, the TGI is more than 100 µM.
Take `COC(=O)C(NC(=O)C(CC(=O)OC(C)(C)C)NC(=O)OC(C)(C)C)C(O)c1ccccc1` (configuration not stated): the TGI in the test on MALME-3M melanoma, in the test with OVCAR-3 ovarian, in the test on OVCAR-4 ovarian, in the test with MDA-MB-435, in the test with UACC-257 melanoma and with EKVX NSCLC was more than 100 µM in each case. The TGI in the test with SK-MEL-2 melanoma, in the test on NCI-H460 lung, in the test on CAKI-1 renal, in the test with HOP-62 NSCLC, in the test with COLO 205 colon and in the test on NCI/ADR-RES ovarian was more than 100 µM throughout. The TGI in the test on LOX IMVI melanoma was more than 100 µM.
Turning to `COC(=O)CC(NC(=O)OCc1ccccc1)C(C(C)=O)C(=O)OCc1ccccc1` (configuration not stated), the TGI with OVCAR-3 ovarian, in the test with HL-60(TB) leukemia, in the test with UACC-257 melanoma, in the test on HOP-92 NSCLC, with EKVX NSCLC and in the test with NCI-H460 lung was more than 31.6 µM in each case. For the same compound, the TGI with CAKI-1 renal was more than 31.6 µM; with COLO 205 colon it was more than 31.6 µM; in the test with LOX IMVI melanoma, more than 100 µM.
For the compound `CCN(CC)c1cccc2c1/C(=N/O)CCCC2`, the TGI with MALME-3M melanoma, in the test on HL-60(TB) leukemia, in the test with OVCAR-4 ovarian, in the test on UACC-257 melanoma, with EKVX NSCLC and with SK-MEL-2 melanoma was more than 100 µM each time. The TGI in the test on NCI-H460 lung, in the test with HOP-62 NSCLC, in the test with COLO 205 colon and in the test with LOX IMVI melanoma was more than 100 µM in each case.
Consider `CCc1ccccc1N=NC(=O)NNc1ccccc1CC`, for which the TGI in the test on MALME-3M melanoma turned out to be 32.7 µM; with OVCAR-3 ovarian, 33.2 µM; in the test with HL-60(TB) leukemia, 56.9 µM; with OVCAR-4 ovarian it was 69.8 µM; with MDA-MB-435, 49 µM; in the test with UACC-257 melanoma, 36.1 µM. Further, the TGI in the test with SK-MEL-2 melanoma was determined as 31.7 µM; in the test on NCI-H460 lung, 34.5 µM; with CAKI-1 renal, 95.2 µM; with HOP-62 NSCLC, 29.4 µM; in the test on LOX IMVI melanoma it was 33.7 µM.
As for `COC(=O)C(N)CCCC(N)C(=O)NC(C)C(=O)NC(CCC(=O)NCCNCCNc1c2ccccc2nc2cccc([N+](=O)[O-])c12)C(N)=O` (configuration not stated), the TGI in the test on MALME-3M melanoma came to 24.8 µM; in the test on OVCAR-3 ovarian it was 47.7 µM; with OVCAR-4 ovarian it was 8.05 µM; in the test on MDA-MB-435 it was 20.1 µM; with UACC-257 melanoma, 70.5 µM; in the test on HOP-92 NSCLC, 23.8 µM. Also, the TGI is 32.9 µM in the test on EKVX NSCLC; 30.6 µM in the test on SK-MEL-2 melanoma; 55 µM in the test on NCI-H460 lung; more than 100 µM in the test on CAKI-1 renal; 53.7 µM with HOP-62 NSCLC; 20.4 µM with COLO 205 colon. The TGI with NCI/ADR-RES ovarian was more than 100 µM; with LOX IMVI melanoma, 43 µM.
In the case of `COP(=O)(OC)C(=O)N1N(c2ccc([N+](=O)[O-])cc2)C(=O)C(C)NC1(NNc1ccc([N+](=O)[O-])cc1)P(=O)(OC)OC` (configuration not stated), the TGI with MALME-3M melanoma, in the test on OVCAR-3 ovarian, in the test on HL-60(TB) leukemia, in the test with OVCAR-4 ovarian, in the test with UACC-257 melanoma and in the test on HOP-92 NSCLC was more than 100 µM each time. The TGI with EKVX NSCLC, in the test with SK-MEL-2 melanoma, with NCI-H460 lung, with CAKI-1 renal, in the test with HOP-62 NSCLC and in the test with COLO 205 colon was more than 100 µM in each case. For the same compound, the TGI in the test on LOX IMVI melanoma was more than 100 µM.
Take `O=c1oc2ccccc2nc1/C=C(\O)c1ccc(Cl)cc1`: the TGI in the test on MALME-3M melanoma, in the test on OVCAR-3 ovarian, in the test on OVCAR-4 ovarian, with MDA-MB-435, in the test with UACC-257 melanoma and in the test on EKVX NSCLC was more than 100 µM each time. For the same compound, the TGI in the test with SK-MEL-2 melanoma, with NCI-H460 lung, in the test on CAKI-1 renal, with HOP-62 NSCLC, with COLO 205 colon and in the test on NCI/ADR-RES ovarian was more than 100 µM throughout.
Regarding `Nc1nc2c3nc(Nc4ccccc4)sc3nc(=S)n2c2sc(Nc3ccccc3)nc12`, the TGI is more than 100 µM in the test with MALME-3M melanoma; more than 100 µM in the test on HL-60(TB) leukemia; more than 100 µM with OVCAR-4 ovarian; more than 100 µM in the test with UACC-257 melanoma; 52.3 µM in the test on HOP-92 NSCLC; more than 100 µM in the test with EKVX NSCLC. Also, the TGI with HOP-62 NSCLC and in the test with COLO 205 colon was more than 100 µM throughout.
Turning to `CCCNC(=S)/N=C/c1c(O)cc(C)oc1=O`, the TGI with OVCAR-3 ovarian, in the test on OVCAR-4 ovarian, in the test with MDA-MB-435, in the test with UACC-257 melanoma, with HOP-92 NSCLC and in the test with EKVX NSCLC was more than 100 µM throughout. For the same compound, the TGI with SK-MEL-2 melanoma, in the test on NCI-H460 lung, in the test with CAKI-1 renal, in the test with HOP-62 NSCLC, in the test with COLO 205 colon and with NCI/ADR-RES ovarian was more than 100 µM each time. Besides, the TGI with LOX IMVI melanoma is more than 100 µM.
